{"source": "patent US20220105058A1", "about": "“USE OF 3-O-SULFAMATE-16,16-DIMETHYL-D-HOMOEQUILENIN TO TREAT ONCOLOGICAL DISEASES” (priority 2018, published 2022)", "key": {"lung cancer A549": {"system": "lung cancer A549", "experiment": "activity against A549", "type": "cell-based", "settings": "Homo sapiens"}, "estrogen receptors": {"system": "estrogen receptors", "experiment": "study of binding to the estrogen receptors", "settings": "concentrations of −0.001 and 0.01, 0.1 and 1.0 μmol/ml"}, "[1]": {"experiment": "cholesterol and triglycerides in blood serum (summary statement)"}, "[2]": {"experiment": "acute oral toxicity, OECD 423 test", "settings": "for Lethal effects (dead/total): 14 days observation", "description": "LD50 of the medicament was determined in FVB mice transgenic for HER-2/neu using the OECD 423 test (OECD guideline for testing of chemicals. Acute Oral Toxicity-Acute Toxic Class Method).\n12 female mice were used in the experiment.\nAt the first step, 3 mice were given the medicament at a dose of 300 mg/kg. The study medicament was administered intragastrically (i.g.) using a metal atraumatic gavage (the procedure corresponds to the oral administration in clinical settings). […] The dosage form for administration was prepared ex tempore.\nThe animals were examined 2 times a day, clinically examined individually after the dose administration during the first 60 minutes, with special attention during the first 4 hours, periodically during the first 24 hours, on Day 2 and weekly for up to 14 days. Each animal was thoroughly examined in the housing cage in the observer's hands. The overall conditions of the animals were recorded, such as peculiarities in their behavior, intensity and nature of motor activity, fur and skin appearance.\nThe body weights of the animals were recorded using a verified high-speed electronic laboratory balance Ohaus Scout Pro (USA) with a maximum load of 2000 g and a measurement step of 0.1 g.\nOn Day 15, the animals were euthanized and undergone autopsy analysis with the registration of macroscopic changes. The data was collected in a special individual autopsy form.\nAll of the experimental animals were subject to pathomorphological examination at the end of the study. The euthanized animals were carefully examined for the external pathological changes. The chest and abdominal cavities were examined along with the macroscopic analysis of internal organs.\nWhen assessing the acute toxicity the animals were continuously observed for the first 60 minutes, and then examined every hour for 3 hours and further once in 24 hours. On the second day, the observation was carried out twice per day. Further the observations were made once per day. […] The animal was thoroughly examined in the housing cage in the observer's hands. The overall conditions of the animals were recorded, such as peculiarities in their behavior, intensity and nature of motor activity, fur and skin appearance."}, "[3]": {"system": "Normal human dermal fibroblasts (HDF)", "experiment": "growth of normal human skin fibroblasts (negative control)", "type": "cell-based", "settings": "concentration of 20 μg/ml", "description": "The study analysis was carried out on an passaged MCF-7 human cells culture culture (breast adenocarcinoma). Normal human dermal fibroblasts (HDF) of early passages were used as a negative control. The cells were cultivated in Carrel vials in DMEM/F12 medium (Biolot) with 1.0% of antibiotic-free fetal bovine embryonic serum (Biolot) added in the 5% CO2 atmosphere, at 37° C.\nThe cells were seeded on Carrel vials at 50×10^4 cells per flask. To study the proliferative activity of the cells under conditions of sulfatase inhibition, 24 hours after seeding the culture medium was […], and then these tumor cell lines were incubated for various periods of time (24 to 72 hrs). The inhibitor was dissolved in DMSO. […] To exclude the cytotoxic effect of DMSO, a control sample comprising DMSO without sulfatase inhibitor was prepared. To exclude nonspecific detrimental effects of the compounds, normal human skin fibroblasts were used. Then the cells were detached with the versene-trypsin solution (Biolot), plated onto Carrel vials containing a fresh complete culture medium. The cells were counted when untreated control cells reached the maximum cell density per unit of surface area of a culture flask (monolayer), and their number was set as 100%. The proliferative activity of all of the studied cell cultures exposed to sulfatase inhibitors was determined in triplicate."}}, "note": "Several values for one entry are separate records, joined by “and”; a condition that tells them apart may be missing. Equal entries are not always repeated. Entries after “also recorded” stand apart in the source; their conditions may differ."}
{"smiles": "CC1(C)CC(=O)[C@@]2(C)CCc3c(ccc4cc(OS(N)(=O)=O)ccc34)[C@@H]2C1", "note": "[medicament, 3-O-sulfamate-16,16-dimethyl-D-homoequilenin]", "values": [{"measurement": "IC50", "setting": "lung cancer A549", "value": 29.6, "unit": "µM"}, {"measurement": "hormone activity", "setting": "estrogen receptors", "value": "lacks hormone activity"}, {"measurement": "effects on the content of triglycerides in blood serum", "setting": "[1]", "value": "absence of effects"}, {"measurement": "hypocholesterolemic activity", "setting": "[1]", "value": "hypocholesterolemic activity"}, {"measurement": "signs of intoxication", "setting": "[2]; 300 mg/kg", "value": "None of the animals exhibited visual signs of intoxication"}, {"measurement": "Lethal effects (dead/total)", "setting": "[2]; 300 mg/kg i.g.", "value": "no animals died and no animals deaths were detected and 0/6"}, {"measurement": "average body weight", "setting": "[2]; 300 mg/kg, Day 1 (before administration)", "value": 28.1, "unit": "g"}, {"measurement": "body weight of individual mice", "setting": "[2]; 300 mg/kg, Day 1 (before administration), in g (unit assumed)", "value": "29.6 and 27.8 and 28.0 and 30.0 and 27.0 and 26.4"}, {"measurement": "average body weight", "setting": "[2]; 300 mg/kg, Day 2", "value": 28.1, "unit": "g"}, {"measurement": "average body weight, % from baseline", "setting": "[2]; 300 mg/kg, Day 2", "value": 0, "unit": "%"}, {"measurement": "body weight of individual mice", "setting": "[2]; 300 mg/kg, Day 2, in g (unit assumed)", "value": "29.2 and 27.4 and 27.8 and 30.4 and 27.2 and 26.8"}, {"measurement": "average body weight", "setting": "[2]; 300 mg/kg, Day 7", "value": 29.1, "unit": "g"}, {"measurement": "average body weight, % from baseline", "setting": "[2]; 300 mg/kg, Day 7", "value": 3, "unit": "%"}, {"measurement": "body weight of individual mice", "setting": "[2]; 300 mg/kg, Day 7, in g (unit assumed)", "value": "29.6 and 28.2 and 29.7 and 31.2 and 28.4 and 27.2"}, {"measurement": "average body weight", "setting": "[2]; 300 mg/kg, Day 14", "value": 29.5, "unit": "g"}, {"measurement": "average body weight, % from baseline", "setting": "[2]; 300 mg/kg, Day 14", "value": 5, "unit": "%"}, {"measurement": "body weight of individual mice", "setting": "[2]; 300 mg/kg, Day 14, in g (unit assumed)", "value": "30.2 and 29.0 and 30.6 and 31.1 and 28.6 and 27.6"}, {"measurement": "clinical signs of intoxication", "setting": "[2]; 2000 mg/kg", "value": "No clinical signs of intoxication were observed"}, {"measurement": "Lethal effects (dead/total)", "setting": "[2]; 2000 mg/kg i.g. in 2 steps", "value": "0/6"}, {"measurement": "average body weight", "setting": "[2]; 2000 mg/kg, Day 1 (before administration)", "value": 26.2, "unit": "g"}, {"measurement": "body weight of individual mice", "setting": "[2]; 2000 mg/kg, Day 1 (before administration), in g (unit assumed)", "value": "28.4 and 27.5 and 25.7 and 24.2 and 24.0 and 27.2"}, {"measurement": "average body weight", "setting": "[2]; 2000 mg/kg, Day 2", "value": 25.8, "unit": "g"}, {"measurement": "average body weight, % from baseline", "setting": "[2]; 2000 mg/kg, Day 2", "value": "−1", "unit": "%"}, {"measurement": "decrease in the average body weight from baseline", "setting": "[2]; 2000 mg/kg, Day 2", "value": 1, "unit": "%"}, {"measurement": "body weight of individual mice", "setting": "[2]; 2000 mg/kg, Day 2, in g (unit assumed)", "value": "28.0 and 26.8 and 25.3 and 24.4 and 23.8 and 26.4"}, {"measurement": "average body weight", "setting": "[2]; 2000 mg/kg, Day 7", "value": 25.7, "unit": "g"}, {"measurement": "average body weight, % from baseline", "setting": "[2]; 2000 mg/kg, Day 7", "value": "−2", "unit": "%"}, {"measurement": "decrease in the average body weight from baseline", "setting": "[2]; 2000 mg/kg, Day 7", "value": 2, "unit": "%"}, {"measurement": "body weight of individual mice", "setting": "[2]; 2000 mg/kg, Day 7, in g (unit assumed)", "value": "26.8 and 24.9 and 25.0 and 25.9 and 25.4 and 26.3"}, {"measurement": "average body weight", "setting": "[2]; 2000 mg/kg, Day 14", "value": 27, "unit": "g"}, {"measurement": "average body weight, % from baseline", "setting": "[2]; 2000 mg/kg, Day 14", "value": 3, "unit": "%"}, {"measurement": "body weight of individual mice", "setting": "[2]; 2000 mg/kg, Day 14", "value": "26.9 (2×) and 26.0 and 26.6 and 28.7 and 27.0"}, {"measurement": "macroscopic examination of internal organs at autopsy", "setting": "[2]; Day 15", "value": "did not reveal any pathological changes; also recorded: did not reveal any abnormalities"}, {"measurement": "hazard class / category", "setting": "[2]; mouse, in vivo", "value": "5th or non-classified category and 4th hazard class and 5th or unclassified category"}, {"measurement": "toxicity", "setting": "[2]; summary statement", "value": "absence of toxicity"}, {"measurement": "growth of human skin fibroblasts", "setting": "[3]", "value": "does not influence the growth"}]}
